Test results from ChEMBL document CHEMBL6096652, “Design, synthesis and anti-tumor evaluation of novel pyrimidine and quinazoline analogues” (Eur J Med Chem, 2025).
Each block holds one molecule with its values, some of them ahead of it. Calls of active or inactive are those of the source. The calls are words filed in the database; no cut-off is given here.

Experiments:
[1] = test system: B16-F10; test: Antiproliferative activity against mouse B16-F10 cells incubated for 48 hrs by MTT assay; format: functional, cell-based; settings: B16-F10, 48 h
[2] = test system: A549; test: Antiproliferative activity against human A549 cells incubated for 48 hrs by MTT assay; format: functional, cell-based; settings: A549, 48 h
[3] = test system: HepG2; test: Antiproliferative activity against human HepG2 cells incubated for 48 hrs by MTT assay; format: functional, cell-based; settings: HepG2, 48 h
[4] = test system: MCF7; test: Antiproliferative activity against human MCF7 cells incubated for 48 hrs by MTT assay; format: functional, cell-based; settings: MCF7, 48 h
[5] = molecular target: T1, Tubulin (Homo sapiens) (UniProt P68371+Q9H4B7+P0DPH7+P68366+Q13509+Q71U36+P04350+Q3ZCM7+P07437+P68363+Q9BQE3+Q6PEY2+Q13885+Q9BVA1+Q9BUF5); test: (§1) Inhibition of tubulin polymerization (unknown origin) measured upto 20 mins by absorbance based assay; format: protein-complex assay
[6] = molecular target: Tubulin; test: as §1; format: protein-complex assay, Homo sapiens
[7] = molecular target: T1, Tubulin (Homo sapiens); test: Disruption of microtubule polymerization in human HepG2 cells at 100 nM incubated for 12 hrs by immunofluorescence based analysis; format: cell-based
[8] = test system: B16-F10; test: Induction of cell cycle arrest in mouse B16-F10 cells assessed as accumulation at G1 phase at 50 nM incubated for 24 hrs by flow cytometry (reference value: 57.91 %); format: functional
[9] = test system: B16-F10; test: Induction of cell cycle arrest in mouse B16-F10 cells assessed as accumulation at S phase at 50 nM incubated for 24 hrs by flow cytometry (reference value: 37.84 %); format: functional
[10] = test system: B16-F10; test: Induction of cell cycle arrest in mouse B16-F10 cells assessed as accumulation at G2/M phase at 50 nM incubated for 24 hrs by flow cytometry (reference value: 4.25 %); format: functional
[11] = test system: B16-F10; test: Induction of cell cycle arrest in mouse B16-F10 cells assessed as accumulation at G1 phase at 100 nM incubated for 24 hrs by flow cytometry (reference value: 57.91 %); format: functional
[12] = test system: B16-F10; test: Induction of cell cycle arrest in mouse B16-F10 cells assessed as accumulation at S phase at 100 nM incubated for 24 hrs by flow cytometry (reference value: 37.84 %); format: functional
[13] = test system: B16-F10; test: Induction of cell cycle arrest in mouse B16-F10 cells assessed as accumulation at G2/M phase at 100 nM incubated for 24 hrs by flow cytometry (reference value: 4.25 %); format: functional
[14] = test system: B16-F10; test: Induction of cell cycle arrest in mouse B16-F10 cells assessed as accumulation at G1 phase at 200 nM incubated for 24 hrs by flow cytometry (reference value: 57.91 %); format: functional
[15] = test system: B16-F10; test: Induction of cell cycle arrest in mouse B16-F10 cells assessed as accumulation at S phase at 200 nM incubated for 24 hrs by flow cytometry (reference value: 37.84 %); format: functional
[16] = test system: B16-F10; test: Induction of cell cycle arrest in mouse B16-F10 cells assessed as accumulation at G2/M phase at 200 nM incubated for 24 hrs by flow cytometry (reference value: 4.25 %); format: functional
[17] = test system: B16-F10; test: Induction of cell cycle arrest in mouse B16-F10 cells assessed as accumulation at G2/M phase incubated for 24 hrs by flow cytometry; format: functional, cell-based
[18] = test system: B16-F10; test: Induction of apoptosis in mouse B16-F10 cells assessed as viable cells at 50 nM incubated for 24 hrs by Annexin V-PE/7-AAD staining based flow cytometry (reference value: 94.5 %); format: functional; settings: read-out: Activity
[19] = test system: B16-F10; test: Induction of apoptosis in mouse B16-F10 cells assessed as early apoptotic cells at 50 nM incubated for 24 hrs by Annexin V-PE/7-AAD staining based flow cytometry (reference value: 1.04 %); format: functional
[20] = test system: B16-F10; test: Induction of apoptosis in mouse B16-F10 cells assessed as late apoptotic cells at 50 nM incubated for 24 hrs by Annexin V-PE/7-AAD staining based flow cytometry (reference value: 4.13 %); format: functional
[21] = test system: B16-F10; test: Induction of apoptosis in mouse B16-F10 cells assessed as necrotic cells at 50 nM incubated for 24 hrs by Annexin V-PE/7-AAD staining based flow cytometry (reference value: 0.33 %); format: functional
[22] = test system: B16-F10; test: Induction of apoptosis in mouse B16-F10 cells assessed as total apoptotic cells at 50 nM incubated for 24 hrs by Annexin V-PE/7-AAD staining based flow cytometry (reference value: 5.17 %); format: functional
[23] = test system: B16-F10; test: Induction of apoptosis in mouse B16-F10 cells assessed as viable cells at 100 nM incubated for 24 hrs by Annexin V-PE/7-AAD staining based flow cytometry (reference value: 94.5 %); format: functional; settings: read-out: Activity
[24] = test system: B16-F10; test: Induction of apoptosis in mouse B16-F10 cells assessed as early apoptotic cells at 100 nM incubated for 24 hrs by Annexin V-PE/7-AAD staining based flow cytometry (reference value: 1.04 %); format: functional
[25] = test system: B16-F10; test: Induction of apoptosis in mouse B16-F10 cells assessed as late apoptotic cells at 100 nM incubated for 24 hrs by Annexin V-PE/7-AAD staining based flow cytometry (reference value: 4.13 %); format: functional
[26] = test system: B16-F10; test: Induction of apoptosis in mouse B16-F10 cells assessed as necrotic cells at 100 nM incubated for 24 hrs by Annexin V-PE/7-AAD staining based flow cytometry (reference value: 0.33 %); format: functional
[27] = test system: B16-F10; test: Induction of apoptosis in mouse B16-F10 cells assessed as total apoptotic cells at 100 nM incubated for 24 hrs by Annexin V-PE/7-AAD staining based flow cytometry (reference value: 5.17 %); format: functional
[28] = test system: B16-F10; test: Induction of apoptosis in mouse B16-F10 cells assessed as viable cells at 200 nM incubated for 24 hrs by Annexin V-PE/7-AAD staining based flow cytometry (reference value: 94.5 %); format: functional; settings: read-out: Activity
[29] = test system: B16-F10; test: Induction of apoptosis in mouse B16-F10 cells assessed as early apoptotic cells at 200 nM incubated for 24 hrs by Annexin V-PE/7-AAD staining based flow cytometry (reference value: 1.04 %); format: functional
[30] = test system: B16-F10; test: Induction of apoptosis in mouse B16-F10 cells assessed as late apoptotic cells at 200 nM incubated for 24 hrs by Annexin V-PE/7-AAD staining based flow cytometry (reference value: 4.13 %); format: functional
[31] = test system: B16-F10; test: Induction of apoptosis in mouse B16-F10 cells assessed as necrotic cells at 200 nM incubated for 24 hrs by Annexin V-PE/7-AAD staining based flow cytometry (reference value: 0.33 %); format: functional
[32] = test system: B16-F10; test: Induction of apoptosis in mouse B16-F10 cells assessed as total apoptotic cells at 200 nM incubated for 24 hrs by Annexin V-PE/7-AAD staining based flow cytometry (reference value: 5.17 %); format: functional
[33] = test system: B16-F10; test: Inhibition of cell migration in mouse B16-F10 cells assessed as recovery of scratch area at 50 nM incubated for 24 hrs by wound healing assay (reference value: 72.97 %); format: functional; set-up: scale not given: the % may be the effect or the level left
[34] = test system: B16-F10; test: Inhibition of cell migration in mouse B16-F10 cells assessed as recovery of scratch area at 100 nM incubated for 24 hrs by wound healing assay (reference value: 72.97 %); format: functional; set-up: scale not given: the % may be the effect or the level left
[35] = test system: B16-F10; test: Inhibition of cell migration in mouse B16-F10 cells assessed as recovery of scratch area at 200 nM incubated for 24 hrs by wound healing assay (reference value: 72.97 %); format: functional; set-up: scale not given: the % may be the effect or the level left
[36] = test system: B16-F10; test: Antitumor activity against mouse B16-F10 cells implanted in C57BL/6 mouse assessed as reduction in tumor volume at 15 mg/kg measured after 10 days; format: functional, organism-based; settings: time 10.0 day
[37] = test system: B16-F10; test: Antitumor activity against mouse B16-F10 cells implanted in C57BL/6 mouse at 15 mg/kg measured after 10 days relative to control; format: functional; settings: B16-F10, 240 h, time 10 day, read-out: TGI
[38] = test system: B16-F10; test: Antitumor activity against mouse B16-F10 cells implanted in C57BL/6 mouse at 30 mg/kg measured after 10 days relative to control; format: functional; settings: B16-F10, 240 h, time 10 day, read-out: TGI
[39] = Toxicity in C57BL/6 mouse implanted with mouse B16-F10 cells assessed as body weight change at 15 to 30 mg/kg measured after 10 days; format: organism-based; settings: in vivo, 240 h, dose 15-30 mg/kg, time 10 day
[40] = Toxicity in C57BL/6 mouse implanted with mouse B16-F10 cells assessed as adverse effects at 15 to 30 mg/kg measured after 10 days; format: organism-based; settings: in vivo, 240 h, dose 15-30 mg/kg, time 10 day
[41] = test system: B16-F10; test: Antitumor activity against mouse B16-F10 cells implanted in C57BL/6 mouse at 10 mg/kg measured after 10 days relative to control; format: functional; settings: B16-F10, 240 h, time 10 day, read-out: TGI

- IC50 [1]: 98 nM
- IC50 [2]: 135 nM
- IC50 [3]: 109 nM
- IC50 [4]: 259 nM
- inhibition [5]: Dose-dependent-effect
- IC50 [6]: 22200 nM
- Activity [7]: Active
Structure (SMILES): COc1cc(Nc2ccnc(-c3cccc4c3ccn4C)n2)cc(OC)c1OC
- Activity [8]: 51.86%
- Activity [9]: 32.53%
- Activity [10]: 15.61%
- Activity [11]: 11.76%
- Activity [12]: 23.18%
- Activity [13]: 65.06%
- Activity [14]: 5.91%
- Activity [15]: 11.67%
- Activity [16]: 82.41%
- Activity [17]: Dose-dependent-effect
- viability at 0.05 µM [18]: 88.3%
- Activity [19]: 1.71%
- Activity [20]: 8.25%
- Activity [21]: 1.7%
- Activity [22]: 9.96%
- viability at 0.1 µM [23]: 86%
- Activity [24]: 3.58%
- Activity [25]: 9.91%
- Activity [26]: 0.52%
- Activity [27]: 13.49%
- viability at 0.2 µM [28]: 77.4%
- Activity [29]: 3.4%
- Activity [30]: 18.8%
- Activity [31]: 0.36%
- Activity [32]: 22.2%
- Activity [33]: 69.89%
- Activity [34]: 37.37%
- Activity [35]: 22.38%
- Activity [36]: Active
- inhibition in vivo at 15 mg/kg [37]: 57.9%
- inhibition in vivo at 30 mg/kg [38]: 79.6%
- Activity [39]: Non-toxic
- Activity [40]: Non-toxic

Structure (SMILES): COc1cc2c(c(OC)c1OC)-c1ccc(OC)c(=O)cc1[C@@H](NC(C)=O)CC2 [COLCHICINE]
- IC50 [1]: 79 nM
- IC50 [2]: 507 nM
- IC50 [3]: 38 nM
- IC50 [4]: 31 nM
- Activity [33]: 33.68%
- inhibition in vivo at 10 mg/kg [41]: 72.8%

- IC50 [1]: > 50000 nM
- IC50 [2]: 5380 nM
- IC50 [3]: 2320 nM
- IC50 [4]: > 50000 nM
Structure (SMILES): COc1cc(NC(=O)c2ccnc(-c3ccccc3)n2)cc(OC)c1OC
